Reference: ChEMBL document CHEMBL5506027, “Discovery of a Novel and Potent Cyclin-Dependent Kinase 8/19 (CDK8/19) Inhibitor for the Treatment of Cancer” (J Med Chem, 2024)
The source made the active and inactive calls. No cut-off for these calls is given here.

Experiments:
[1] = Dose normalized AUC in mouse at 5 mg/kg, po measured upto 24 hrs by LC-MS/MS analysis; assay type: ADME, organism-based; conditions: in vivo
[2] = AUC(0 to 24 hrs) in dog at 3 mg/kg, po measured upto 24 hrs by LC-MS/MS analysis; assay type: ADME, organism-based, Canis lupus familiaris; conditions: in vivo
Mus musculus [3] = assay: In vivo inhibition of STAT3 phosphorylation in BALB/c nude mouse tumor xenografted with human MV4-11 cells at 60 mg/kg, po qd for 3 weeks and measured 8 to 24 hrs post last dose; assay type: functional, organism-based; conditions: time 22.0 day
[4] = Dose normalized AUC in rat at 5 mg/kg, po measured upto 24 hrs by LC-MS/MS analysis; assay type: ADME, organism-based; conditions: in vivo
[5] = Cmax in mouse at 5 mg/kg, po measured upto 24 hrs by LC-MS/MS analysis; assay type: ADME, organism-based; conditions: in vivo
[6] = Oral bioavailability in dog at 3 mg/kg measured upto 24 hrs by LC-MS/MS analysis; assay type: ADME, organism-based, Canis lupus familiaris; conditions: in vivo
[7] = Tmax in dog at 3 mg/kg, po measured upto 24 hrs by LC-MS/MS analysis; assay type: ADME, organism-based, Canis lupus familiaris; conditions: in vivo
[8] = Selectivity ratio of IC50 for CDK5/p35NCK (unknown origin) to IC50 for CDK8/Cyclin C (unknown origin)
[9] = Cmax in monkey at 5 mg/kg, po measured upto 24 hrs by LC-MS/MS analysis; assay type: ADME, organism-based, Macaca mulatta; conditions: rhesus monkey, in vivo
[10] = target: CDK12/Cyclin K (Homo sapiens) (UniProt O75909+Q9NYV4); assay: Inhibition of CDK12/cyclinK (unknown origin) at 1 uM by luminescence based assay relative to control; assay type: protein-complex assay
[11] = Dose normalized AUC in mouse at 30 mg/kg, po measured upto 24 hrs by LC-MS/MS analysis; assay type: ADME, organism-based; conditions: in vivo
[12] = target: CDK6/cyclin D1 (Homo sapiens) (UniProt P24385+Q00534); assay: Inhibition of CDK6/cyclinD1 (unknown origin) at 1 uM by luminescence based assay relative to control; assay type: protein-complex assay
[13] = Oral bioavailability in mouse at 30 mg/kg measured upto 24 hrs by LC-MS/MS analysis; assay type: ADME, organism-based; conditions: in vivo
[14] = AUC(0 to 24 hrs) in monkey at 5 mg/kg, po measured upto 24 hrs by LC-MS/MS analysis; assay type: ADME, organism-based, Macaca mulatta; conditions: rhesus monkey, in vivo
[15] = target: T1, Cyclin-dependent kinase 5/CDK5 activator 1 (Homo sapiens) (UniProt Q00535+Q15078); assay: Inhibition of CDK5/p25NCK (unknown origin) at 1 uM by luminescence based assay relative to control; assay type: protein-complex assay
[16] = AUC(0 to 24 hrs) in rat at 10 mg/kg, po measured upto 24 hrs by LC-MS/MS analysis; assay type: ADME, organism-based; conditions: in vivo
[17] = target: CDK2/Cyclin A2 (Homo sapiens) (UniProt P24941+P20248); assay: Inhibition of CDK2/CyclinA2 (unknown origin) at 1 uM by luminescence based assay relative to control; assay type: protein-complex assay
[18] = Toxicity in CB17 SCID mouse xenografted with human Z138 cells assessed as change in body weight at 2.5 to 5 mg/kg, po qd for 3 weeks in presence of rituximab; assay type: organism-based; conditions: in vivo, 504 h, dose 2.5-5 mg/kg
Z-138 = assay: Synergistic antitumor activity against human Z138 cells xenografted in CB17 SCID mouse assessed as tumor growth inhibition at 2.5 to 5 mg/kg, po administered once daily for 21 days in presence of rituximab; assay type: functional; conditions: dose 2.5-5 mg/kg, time 21 day
[19] = Dose normalized AUC in monkey at 5 mg/kg, po measured upto 24 hrs by LC-MS/MS analysis; assay type: ADME, organism-based, Macaca mulatta; conditions: rhesus monkey, in vivo
[20] = target: CDK1/Cyclin E (Homo sapiens) (UniProt P06493+P24864); assay: Inhibition of CDK1/cyclinE1 (unknown origin) at 1 uM by luminescence based assay relative to control; assay type: protein-complex assay
Mus musculus [21] = assay: In vivo inhibition of STAT3 phosphorylation in BALB/c nude mouse tumor xenografted with human MV4-11 cells at 10 mg/kg, po qd for 3 weeks and measured 8 to 24 hrs post last dose; assay type: functional, organism-based; conditions: time 22.0 day
[22] = target: Cyclin-Y/Cyclin-dependent kinase 16 (Homo sapiens) (UniProt Q00536+Q8ND76); assay: Inhibition of CDK16/cyclinY (unknown origin) at 1 uM by luminescence based assay relative to control; assay type: protein-complex assay
[23] = Volume of distribution at steady state in monkey at 1 mg/kg, iv measured upto 24 hrs by LC-MS/MS anlaysis; assay type: ADME, organism-based, Macaca mulatta; conditions: rhesus monkey, in vivo, read-out: Vdss
Homo sapiens = species: Homo sapiens; assay: Inhibition of CDK1/CyclinA2 (unknown origin) at 1 uM by luminescence based assay relative to control
[24] = target: CDK3/Cyclin E (Homo sapiens) (UniProt P24864+Q00526); assay: Inhibition of CDK3/cyclinE1 (unknown origin) at 1 uM by luminescence based assay relative to control; assay type: protein-complex assay
[25] = Dose normalized AUC in dog at 5 mg/kg, po measured upto 24 hrs by LC-MS/MS analysis; assay type: ADME, organism-based, Canis lupus familiaris; conditions: in vivo
[26] = Toxicity in BALB/c nude mouse xenografted with human MV4-11 cells assessed as change in body weight at 3 mg/kg, ip qd and measured twice a week for 3 weeks in presence of carboplatin; assay type: organism-based; conditions: in vivo, 504 h
[27] = target: T1, Cyclin-dependent kinase 5/CDK5 activator 1 (Homo sapiens); assay: Inhibition of CDK5/p35NCK (unknown origin) at 1 uM by luminescence based assay relative to control; assay type: protein-complex assay
[28] = Tmax in mouse at 30 mg/kg, po measured upto 24 hrs by LC-MS/MS analysis; assay type: ADME, organism-based; conditions: in vivo
[29] = Tmax in rat at 10 mg/kg, po measured upto 24 hrs by LC-MS/MS analysis; assay type: ADME, organism-based; conditions: in vivo
[30] = Clearance in monkey at 1 mg/kg, iv measured upto 24 hrs by LC-MS/MS anlaysis; assay type: ADME, organism-based, Macaca mulatta; conditions: rhesus monkey, in vivo

T1 sequence (Q00535 whole entry): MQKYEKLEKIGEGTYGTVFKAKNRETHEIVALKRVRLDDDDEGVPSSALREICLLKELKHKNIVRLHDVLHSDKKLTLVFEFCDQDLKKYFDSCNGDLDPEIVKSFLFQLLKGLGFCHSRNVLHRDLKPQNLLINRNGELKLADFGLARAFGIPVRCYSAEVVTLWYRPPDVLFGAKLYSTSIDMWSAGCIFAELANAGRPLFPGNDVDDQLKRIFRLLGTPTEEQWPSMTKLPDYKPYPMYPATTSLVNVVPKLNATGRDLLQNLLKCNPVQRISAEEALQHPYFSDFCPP
T1 sequence (Q15078 99-307 partner limits assumed): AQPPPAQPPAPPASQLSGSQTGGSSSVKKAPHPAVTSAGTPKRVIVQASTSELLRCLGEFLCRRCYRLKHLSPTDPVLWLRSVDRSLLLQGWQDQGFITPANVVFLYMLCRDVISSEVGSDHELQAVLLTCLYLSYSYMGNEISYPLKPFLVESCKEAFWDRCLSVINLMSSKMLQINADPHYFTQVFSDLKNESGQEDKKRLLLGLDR
CDK1/Cyclin E (Homo sapiens), sequence (P06493 whole entry, looked up): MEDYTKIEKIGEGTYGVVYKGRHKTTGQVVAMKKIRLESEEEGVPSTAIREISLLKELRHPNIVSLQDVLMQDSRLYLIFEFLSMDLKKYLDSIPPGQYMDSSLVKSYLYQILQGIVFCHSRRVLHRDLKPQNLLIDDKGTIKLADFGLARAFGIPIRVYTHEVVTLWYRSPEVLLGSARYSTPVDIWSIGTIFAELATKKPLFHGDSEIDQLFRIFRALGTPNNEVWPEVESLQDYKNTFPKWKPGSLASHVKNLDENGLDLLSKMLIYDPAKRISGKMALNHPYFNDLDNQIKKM
CDK1/Cyclin E (Homo sapiens), sequence (P24864 whole entry, looked up): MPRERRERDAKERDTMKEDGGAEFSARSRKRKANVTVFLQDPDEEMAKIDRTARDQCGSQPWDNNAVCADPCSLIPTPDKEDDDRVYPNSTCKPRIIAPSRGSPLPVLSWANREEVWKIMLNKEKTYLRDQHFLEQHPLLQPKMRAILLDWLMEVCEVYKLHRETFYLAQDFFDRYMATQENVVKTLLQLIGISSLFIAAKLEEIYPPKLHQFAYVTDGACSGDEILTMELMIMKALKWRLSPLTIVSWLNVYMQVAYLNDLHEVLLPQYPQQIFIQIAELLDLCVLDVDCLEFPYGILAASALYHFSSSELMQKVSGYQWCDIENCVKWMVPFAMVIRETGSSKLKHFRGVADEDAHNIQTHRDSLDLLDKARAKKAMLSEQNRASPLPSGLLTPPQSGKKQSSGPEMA
CDK12/Cyclin K (Homo sapiens), sequence (O75909 whole entry, looked up): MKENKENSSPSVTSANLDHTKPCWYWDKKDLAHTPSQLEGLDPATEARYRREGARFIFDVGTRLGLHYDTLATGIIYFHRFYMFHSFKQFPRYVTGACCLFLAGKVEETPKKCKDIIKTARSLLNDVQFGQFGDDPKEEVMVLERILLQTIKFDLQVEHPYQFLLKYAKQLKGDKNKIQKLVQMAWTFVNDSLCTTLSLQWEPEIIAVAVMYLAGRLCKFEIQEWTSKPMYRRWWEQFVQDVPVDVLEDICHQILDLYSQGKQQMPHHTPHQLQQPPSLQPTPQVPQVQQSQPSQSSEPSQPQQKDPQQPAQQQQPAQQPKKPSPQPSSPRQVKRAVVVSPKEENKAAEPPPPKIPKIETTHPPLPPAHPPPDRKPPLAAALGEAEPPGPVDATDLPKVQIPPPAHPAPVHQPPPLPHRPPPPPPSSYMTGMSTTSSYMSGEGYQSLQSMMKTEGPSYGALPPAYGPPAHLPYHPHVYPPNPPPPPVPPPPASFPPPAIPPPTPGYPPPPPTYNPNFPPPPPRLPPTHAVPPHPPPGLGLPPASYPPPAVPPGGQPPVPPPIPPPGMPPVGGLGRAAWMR
CDK12/Cyclin K (Homo sapiens), sequence (Q9NYV4 whole entry, looked up): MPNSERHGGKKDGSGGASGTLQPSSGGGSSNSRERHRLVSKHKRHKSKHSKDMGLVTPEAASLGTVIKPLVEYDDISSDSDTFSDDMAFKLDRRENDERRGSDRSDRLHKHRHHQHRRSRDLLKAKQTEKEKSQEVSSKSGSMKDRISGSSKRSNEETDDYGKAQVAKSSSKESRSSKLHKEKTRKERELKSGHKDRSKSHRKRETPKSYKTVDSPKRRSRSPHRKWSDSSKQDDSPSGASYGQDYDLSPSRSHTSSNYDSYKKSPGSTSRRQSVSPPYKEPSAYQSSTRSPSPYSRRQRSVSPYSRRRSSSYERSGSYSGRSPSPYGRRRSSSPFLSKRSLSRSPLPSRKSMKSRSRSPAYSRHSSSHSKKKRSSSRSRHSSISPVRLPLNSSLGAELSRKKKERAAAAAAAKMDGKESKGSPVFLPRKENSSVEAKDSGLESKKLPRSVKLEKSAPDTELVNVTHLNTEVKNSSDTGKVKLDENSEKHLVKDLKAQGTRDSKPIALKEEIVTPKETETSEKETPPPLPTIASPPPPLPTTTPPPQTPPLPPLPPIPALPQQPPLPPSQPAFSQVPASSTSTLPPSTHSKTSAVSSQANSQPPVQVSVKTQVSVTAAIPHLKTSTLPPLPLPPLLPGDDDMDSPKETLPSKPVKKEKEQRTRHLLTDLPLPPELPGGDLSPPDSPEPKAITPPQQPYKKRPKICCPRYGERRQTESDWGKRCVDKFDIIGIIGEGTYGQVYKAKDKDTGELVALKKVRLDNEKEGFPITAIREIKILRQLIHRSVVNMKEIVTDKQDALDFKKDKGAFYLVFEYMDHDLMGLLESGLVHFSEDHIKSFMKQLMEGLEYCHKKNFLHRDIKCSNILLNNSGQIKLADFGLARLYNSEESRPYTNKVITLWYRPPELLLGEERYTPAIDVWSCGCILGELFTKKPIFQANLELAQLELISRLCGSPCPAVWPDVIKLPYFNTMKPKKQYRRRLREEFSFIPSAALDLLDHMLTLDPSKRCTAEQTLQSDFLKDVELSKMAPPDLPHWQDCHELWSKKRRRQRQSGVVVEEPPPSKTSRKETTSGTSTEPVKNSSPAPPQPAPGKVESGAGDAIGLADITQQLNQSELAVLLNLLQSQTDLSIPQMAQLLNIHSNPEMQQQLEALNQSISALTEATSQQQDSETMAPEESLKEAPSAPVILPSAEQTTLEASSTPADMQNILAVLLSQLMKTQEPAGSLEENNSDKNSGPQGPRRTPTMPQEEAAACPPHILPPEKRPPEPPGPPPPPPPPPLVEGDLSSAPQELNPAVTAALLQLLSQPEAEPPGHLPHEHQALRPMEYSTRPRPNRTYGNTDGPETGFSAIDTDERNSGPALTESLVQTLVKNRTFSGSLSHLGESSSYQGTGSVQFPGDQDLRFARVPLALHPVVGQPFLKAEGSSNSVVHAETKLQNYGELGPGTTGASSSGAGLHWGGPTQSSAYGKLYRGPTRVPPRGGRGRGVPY
CDK3/Cyclin E (Homo sapiens), sequence (P24864 whole entry, looked up): as the sequence (P24864 whole entry, looked up) above
CDK3/Cyclin E (Homo sapiens), sequence (Q00526 whole entry, looked up): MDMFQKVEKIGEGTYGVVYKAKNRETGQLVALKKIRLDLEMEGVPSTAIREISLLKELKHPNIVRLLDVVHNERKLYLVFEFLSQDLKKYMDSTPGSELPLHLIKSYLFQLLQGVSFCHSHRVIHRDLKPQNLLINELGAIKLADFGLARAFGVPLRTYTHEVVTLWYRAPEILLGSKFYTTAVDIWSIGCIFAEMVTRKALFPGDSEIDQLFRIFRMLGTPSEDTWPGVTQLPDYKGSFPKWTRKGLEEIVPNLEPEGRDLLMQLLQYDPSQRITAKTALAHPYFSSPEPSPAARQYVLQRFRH

SMILES: Cc1c(Br)c(Br)c2c3c1nc(N1CCNCC1)n3CCC2 [SEL-120 FREE BASE]
- AUC/dose [1]: 270 ng·h/mL
- AUC(0-t) at 24 h [2]: 2.06 µg·h/mL
- inhibition (Mus musculus [3]): Active
- AUC/dose [4]: 11.2 ng·h/mL
- Cmax [5]: 0.143 µg/mL
- bioavailability [6]: 136%
- Tmax [7]: 4.18 h
- Ratio IC50 [8]: 0.1

SMILES: FC(F)c1c(Br)c(Br)cc2c1nc(N1CCNCC1)n2C1CCOCC1
- Cmax [9]: 1.1 µg/mL
- inhibition [10]: 69.6%
- AUC/dose [11]: 796 ng·h/mL
- inhibition [12]: 19.4%
- bioavailability [13]: 67%
- AUC(0-t) at 24 h [14]: 12.5 µg·h/mL
- inhibition [15]: 88.3%
- AUC(0-t) at 24 h [16]: 1.9 µg·h/mL
- inhibition [17]: 84.9%
- Activity [18]: Non-Toxic
- TGI (Z-138): 86%
- AUC/dose [19]: 2503 ng·h/mL
- inhibition [20]: 63.4%
- inhibition (Mus musculus [21]): Active
- inhibition [22]: 64.1%
- Vd [23]: 7.05 L/kg
- inhibition (Homo sapiens): 76.2%
- inhibition [24]: 45.4%
- AUC/dose [25]: 1117 ng·h/mL
- Activity [26]: Non-Toxic
- inhibition [27]: 75.3%
- Tmax [28]: 1.5 h
- Tmax [29]: 2 h
- clearance [30]: 0.78 L/h/kg
